Assays:
Assay in all cases: relative viability (nuclei count vs DMSO), 5 days (fraction); higher = more cells survive
[1] = compound: CCC1=CN=CN=C1N2CCN(CC2)CC3=NC4=C(N3)C=C(C=C4)C(F)(F)F + CC(C)C[C@H](NC(=O)[C@H](Cc1ccccc1)NC(=O)c1cnccn1)B(O)O [Bortezomib] (partner 0.002 µM)
Procedure, shortened: (§1)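 Lung cancer cell lines, seeded in 1536-well plates, were treated the following day by pin tool with a single drug or with five library-drug doses (not always all listed) in √10 steps on top of a fixed anchor-drug dose. Cells were fixed and nuclei stained in one step after 5 days, and nuclei were counted. Relative viability is the nuclei count for treated wells divided by that for vehicle wells, reported as medians of duplicate plates.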

[2] = compound: CCC1=CN=CN=C1N2CCN(CC2)CC3=NC4=C(N3)C=C(C=C4)C(F)(F)F + C[C@]1(O)C[C@@H](c2nc(-c3ccc4ccc(-c5ccccc5)nc4c3)c3c(N)nccn32)C1 [Linsitinib] (partner 1 µM)
Procedure, shortened: as §1

[3] = compound: CCC1=CN=CN=C1N2CCN(CC2)CC3=NC4=C(N3)C=C(C=C4)C(F)(F)F + N=C(N)NC(=N)NCCc1ccccc1 [Phenformin] (partner 250 µM)
Procedure, shortened: as §1

Mirin + Dasatinib = compound: N=C1NC(=O)/C(=C/c2ccc(O)cc2)S1 [Mirin] + Cc1nc(Nc2ncc(C(=O)Nc3c(C)cccc3Cl)s2)cc(N2CCN(CCO)CC2)n1 [Dasatinib] (partner 0.075 µM)
Procedure, shortened: as §1

Cell Line | relative viability ([1]; first compound 0.04 µM) | relative viability ([1]; first compound 0.1265 µM) | relative viability ([1]; first compound 0.4 µM) | relative viability ([1]; first compound 1.265 µM) | relative viability ([1]; first compound 4 µM) | relative viability ([2]; first compound 0.04 µM) | relative viability ([2]; first compound 0.1265 µM) | relative viability ([2]; first compound 0.4 µM) | relative viability ([2]; first compound 1.265 µM) | relative viability ([2]; first compound 4 µM) | relative viability ([3]; first compound 0.04 µM) | relative viability ([3]; first compound 0.1265 µM) | relative viability ([3]; first compound 0.4 µM) | relative viability ([3]; first compound 1.265 µM) | relative viability ([3]; first compound 4 µM) | relative viability (Mirin + Dasatinib; first compound 0.25 µM) | relative viability (Mirin + Dasatinib; first compound 0.7906 µM) | relative viability (Mirin + Dasatinib; first compound 2.5 µM) | relative viability (Mirin + Dasatinib; first compound 7.906 µM) | relative viability (Mirin + Dasatinib; first compound 25 µM)
NCI-H2228 | 1.29 | 1.11 | 1.19 | 1.05 | 1.11 | 0.343 | 0.629 | 0.814 | 0.576 | 0.689 | 0.313 | 0.341 | 0.286 | 0.312 | 0.399 | 0.594 | 0.458 | 0.516 | 0.448 | 0.412
NCI-H1734 | 0.919 | 0.853 | 0.907 | – | 0.854 | 0.971 | 0.836 | 0.946 | – | 0.877 | 0.377 | 0.379 | 0.427 | 0.381 | 0.445 | 0.484 | 0.436 | 0.469 | 0.45 | 0.438
A-427 | 0.926 | 0.896 | 0.936 | 0.878 | 0.989 | 1.12 | 1.11 | 1.03 | 1.05 | 0.857 | 0.3 | 0.292 | 0.225 | 0.234 | 0.224 | 0.766 | – | 0.78 | 0.714 | 0.632
SK-LU-1 | 1.09 | 1.03 | 1.16 | – | 1.13 | 1.28 | 1.24 | 1.32 | 1 | 1.06 | 0.523 | 0.534 | 0.509 | 0.385 | 0.579 | 0.209 | 0.163 | 0.161 | 0.209 | 0.224
NCI-H838 | 0.945 | 0.747 | 0.782 | 0.597 | 1.03 | 0.991 | 0.912 | 0.941 | 0.916 | 1.05 | 0.575 | 0.507 | 0.536 | 0.434 | 0.596 | 0.275 | 0.277 | 0.309 | 0.394 | 0.346
LCLC-97TM1 | – | 0.516 | 0.598 | 0.668 | 0.942 | 0.23 | 0.185 | 0.158 | 0.166 | 0.202 | 0.477 | 0.406 | 0.412 | 0.478 | 0.498 | 0.773 | 0.816 | 0.868 | 0.737 | 0.765
BEN | 0.646 | 0.656 | 0.708 | 0.621 | 0.49 | 0.868 | 0.82 | 0.802 | 0.531 | 0.477 | 0.254 | 0.255 | 0.229 | 0.253 | 0.265 | 0.321 | 0.315 | 0.308 | 0.305 | 0.246
NCI-H2023 | 1.04 | 1.03 | 0.964 | 0.837 | 1.17 | 0.714 | 0.658 | 0.664 | 0.757 | 0.746 | 0.449 | 0.433 | 0.442 | 0.378 | 0.393 | 0.562 | 0.541 | 0.548 | 0.463 | 0.335
LC-2-ad | 0.993 | 0.959 | 0.969 | 0.963 | 0.952 | 0.818 | 0.87 | 0.765 | 0.813 | 0.788 | 0.52 | 0.547 | 0.604 | 0.495 | 0.679 | 0.588 | 0.504 | 0.668 | 0.386 | 0.368
ABC-1 | 0.315 | 0.314 | 0.312 | 0.402 | 0.37 | 0.873 | 0.777 | 0.676 | 0.631 | 0.831 | 0.262 | 0.238 | 0.223 | 0.243 | 0.268 | 0.682 | 0.525 | 0.62 | 0.536 | 0.375
NCI-H650 | 0.68 | 0.797 | 0.672 | 0.841 | 0.959 | 0.7 | 1.03 | 1.01 | 0.864 | 0.804 | 0.442 | 0.418 | 0.466 | 0.454 | 0.464 | 0.455 | 0.391 | 0.397 | – | 0.506
NCI-H1755 | 1.02 | 0.882 | 0.953 | 0.816 | 1.06 | 1.02 | 0.938 | 0.955 | 0.948 | 0.944 | 0.632 | 0.583 | 0.597 | 0.484 | 0.634 | 0.396 | 0.383 | 0.391 | 0.389 | 0.436
EPLC-272H | 0.696 | 0.885 | 0.829 | 1.43 | 1.08 | 1.07 | 0.96 | 1 | 1.43 | 1.33 | 0.308 | 0.333 | 0.299 | 0.325 | 0.337 | 0.416 | – | 0.413 | 0.301 | 0.232
NCI-H1437 | 0.528 | 0.484 | 0.431 | 0.474 | 0.504 | 1.03 | 0.967 | 0.896 | 0.836 | 0.634 | 0.343 | 0.295 | 0.302 | 0.255 | 0.317 | 0.405 | 0.41 | 0.386 | 0.309 | 0.347
EKVX | 0.994 | 0.945 | 0.983 | 0.952 | 1.13 | 1.01 | 0.897 | 0.954 | 0.769 | 0.905 | 0.25 | 0.213 | 0.235 | – | 0.22 | 0.671 | – | 0.565 | 0.494 | 0.564
NCI-H1651 | 0.876 | 0.926 | 0.953 | 0.851 | 0.96 | 0.96 | 1.09 | 0.934 | 0.938 | 0.944 | 0.369 | 0.321 | 0.308 | 0.332 | 0.375 | 0.417 | 0.382 | 0.501 | 0.355 | 0.376
HCC-15 | 0.931 | 0.921 | 0.953 | 1.08 | 1.05 | 0.945 | 0.801 | 0.815 | 0.812 | 0.846 | 0.487 | 0.46 | 0.465 | 0.445 | 0.434 | 0.608 | 0.655 | 0.599 | 0.632 | 0.404

— the supplement of paper PMC10307832
